# What was measured:
# [1] = tested on: s.c. pheochromocytoma tumors (MPC cells); assay: [^18F]-DA and [^18F]-DOPA PET in mice with subcutaneous pheochromocytoma; details: for SUVmax (mean±S.E.M.), s.c. tumors <5 mm / SUVmax (mean±S.E.M.), s.c. tumors >5 mm / SUVmax in tumor sample s.c. 1 / SUVmax in tumor sample s.c. 2 / SUVmax in tumor sample s.c. 3 / TLR for s.c. tumors (range over tumor size) / TLR, s.c. tumors <5 mm / TLR, s.c. tumors >5 mm / TBR, s.c. tumors <5 mm / TBR, s.c. tumors >5 mm: 60–70 min after administration; for TBR, s.c. tumors <5 mm / TBR, s.c. tumors >5 mm: muscle as background; for number of subcutaneous tumors localized by PET: necropsy 4 in 4 mice
# [2] = tested on: organ metastatic pheochromocytoma lesions (MPC cells); assay: [^18F]-DA and [^18F]-DOPA PET in mice with organ metastatic pheochromocytoma; details: for TBR (tumor-to-background ratio), liver tumors <3 mm / TBR, adrenal tumors >3 mm / TBR, liver tumors >3 mm / TBR, ovary tumors >3 mm: muscle as background; for SUVmax in tumor sample Adrenal 1: sample also immunostained; for SUVmax in liver lesions, the first week / SUVmax in liver lesions, the second week: liver lesions imaged once a week for two weeks; for optimal time for lesion detection after administration: liver lesions vs liver background, dynamic PET up to 70 min; for number of ovary tumors localized by PET: necropsy 4 in 4 mice; for number of lung tumors localized by PET: necropsy >20 in 2 mice
# [3] = tested on: pheochromocytoma animal model with extensive liver and other organ lesions; type: in vivo; details: preliminary experiments
# [4] = cited from earlier work
# [5] = Fig. 3G, 60–70 min after injection
smiles,measurement,setting,value
"NCCc1cc(O)c(O)cc1[18F] [[^18F]-DA, [^18F]-6-fluorodopamine]","SUVmax (mean±S.E.M.), s.c. tumors <5 mm",[1],0.31±0.02
same,"SUVmax (mean±S.E.M.), s.c. tumors >5 mm",[1],0.35±0.12
same,SUVmax in tumor sample s.c. 1,[1],— (A dash sign “—” presents SUVmax values less than 0.3 for both [^18F]-DA and [^18F]-DOPA)
same,SUVmax in tumor sample s.c. 2,[1],— (A dash sign “—” presents SUVmax values less than 0.3 for both [^18F]-DA and [^18F]-DOPA)
same,SUVmax in tumor sample s.c. 3,[1],— (A dash sign “—” presents SUVmax values less than 0.3 for both [^18F]-DA and [^18F]-DOPA)
same,TLR for s.c. tumors (range over tumor size),[1],0.22-0.27
same,"TLR, s.c. tumors <5 mm",[1],0.22
same,"TLR, s.c. tumors >5 mm",[1],0.27
same,"TBR, s.c. tumors <5 mm",[1],1.72
same,"TBR, s.c. tumors >5 mm",[1],1.94
same,"SUVmax in large s.c. tumor, representative animal",[1]; [5],0.35
same,"SUVmax in muscle (nontarget tissue), representative animal",[1]; [5],0.31
same,number of subcutaneous tumors localized by PET,[1]; four mice,0
same,"SUVmax (mean±S.E.M.), adrenal tumors >3 mm",[2]; 60–70 min after administration,2.18±0.39
same,"SUVmax (mean±S.E.M.), kidney",[2]; 60–70 min after administration,2.41±0.45
same,"SUVmax (mean±S.E.M.), liver",[2]; 60–70 min after administration,0.88±0.11
same,"SUVmax (mean±S.E.M.), liver tumors <3 mm",[2]; 60–70 min after administration,1.61±0.17
same,"SUVmax (mean±S.E.M.), liver tumors >3 mm",[2]; 60–70 min after administration,2.49±0.08
same,"SUVmax (mean±S.E.M.), muscle (background)",[2]; 60–70 min after administration,0.31±0.02
same,"SUVmax (mean±S.E.M.), ovary tumors >3 mm",[2]; 60–70 min after administration,1.99±0.27
same,SUVmax in tumor sample Adrenal 2,[2]; 60–70 min after administration,1.98
same,SUVmax in tumor sample Bone,[2]; 60–70 min after administration,— (A dash sign “—” presents SUVmax values less than 0.3 for both [^18F]-DA and [^18F]-DOPA)
same,SUVmax in tumor sample Liver 1,[2]; 60–70 min after administration,2.46
same,SUVmax in tumor sample Liver 2,[2]; 60–70 min after administration,1.89
same,SUVmax in tumor sample Liver 3,[2]; 60–70 min after administration,— (A dash sign “—” presents SUVmax values less than 0.3 for both [^18F]-DA and [^18F]-DOPA)
same,SUVmax in tumor sample Lung,[2]; 60–70 min after administration,— (A dash sign “—” presents SUVmax values less than 0.3 for both [^18F]-DA and [^18F]-DOPA)
same,SUVmax in tumor sample Ovary,[2]; 60–70 min after administration,1.92
same,"TLR (tumor-to-liver ratio), liver tumors <3 mm",[2]; 60–70 min after administration,1.83
same,TLR for liver lesions (range depending on tumor size),[2]; 60–70 min after administration,1.83–2.83
same,"TLR, adrenal tumors >3 mm",[2]; 60–70 min after administration,2.47
same,"TLR, liver tumors >3 mm",[2]; 60–70 min after administration,2.83
same,"TLR, ovary tumors >3 mm",[2]; 60–70 min after administration,2.26
same,"TBR (tumor-to-background ratio), liver tumors <3 mm",[2]; 60–70 min after administration,5.19
same,"TBR, adrenal tumors >3 mm",[2]; 60–70 min after administration,7.03
same,"TBR, liver tumors >3 mm",[2]; 60–70 min after administration,8.03
same,"TBR, ovary tumors >3 mm",[2]; 60–70 min after administration,6.41
same,SUVmax in tumor sample Adrenal 1,[2]; 60–70 min after administration,2.15
same,"SUVmax time–activity course, liver lesions smaller than 3 mm","[2]; dynamic PET 10–70 min, Fig. 1",remained relatively stable
same,"SUVmax time–activity course, liver tumors larger than 3 mm","[2]; dynamic PET 10–70 min, Fig. 1",decrease in SUVmax over time
same,"SUVmax in liver lesions, the first week",[2],1.85±0.199
same,"SUVmax in liver lesions, the second week",[2],1.16±0.07
same,optimal time for lesion detection after administration,[2],60 to 70 min
same,number of mice with adrenal tumors localized by PET,"[2]; week 5, nine mice",4 mice
same,number of mice with liver tumors localized by PET,"[2]; week 5, nine mice",8 mice
same,number of mice with ovary tumors localized by PET,"[2]; week 5, nine mice",4 in 4 mice
same,number of ovary tumors localized by PET,"[2]; week 5, nine mice",4 in 4 mice
same,number of lung tumors localized by PET,"[2]; week 5, nine mice",0
"N[C@@H](Cc1cc(O)c(O)cc1[18F])C(=O)O [[^18F]-DOPA, [^18F]-L-6-fluoro-3,4-dihydroxyphenylalanine]","SUVmax (mean±S.E.M.), s.c. tumors <5 mm",[1],2.88±0.88
same,"SUVmax (mean±S.E.M.), s.c. tumors >5 mm",[1],2.0±0.06
same,SUVmax in tumor sample s.c. 1,[1],1.88
same,SUVmax in tumor sample s.c. 2,[1],2.25
same,SUVmax in tumor sample s.c. 3,[1],2.09
same,TLR for s.c. tumors (range over tumor size),[1],1.56-2.24
same,"TLR, s.c. tumors <5 mm",[1],2.24
same,"TLR, s.c. tumors >5 mm",[1],1.56
same,"TBR, s.c. tumors <5 mm",[1],7.2
same,"TBR, s.c. tumors >5 mm",[1],5.0
same,"SUVmax in large s.c. tumor, representative animal",[1]; [5],2
same,number of mice with subcutaneous tumors localized by PET,[1]; four mice,4 in 4 mice
same,number of subcutaneous tumors localized by PET,[1]; four mice,4 in 4 mice
same,"SUVmax (mean±S.E.M.), adrenal tumors >3 mm",[2]; 60–70 min after administration,6.61±0.64
same,"SUVmax (mean±S.E.M.), kidney",[2]; 60–70 min after administration,1.73±0.34
same,"SUVmax (mean±S.E.M.), liver",[2]; 60–70 min after administration,1.33±0.14
same,"SUVmax (mean±S.E.M.), liver tumors <3 mm",[2]; 60–70 min after administration,3.01±0.27
same,"SUVmax (mean±S.E.M.), liver tumors >3 mm",[2]; 60–70 min after administration,3.61±0.19
same,"SUVmax (mean±S.E.M.), muscle (background)",[2]; 60–70 min after administration,0.29±0.02
same,"SUVmax (mean±S.E.M.), ovary tumors >3 mm",[2]; 60–70 min after administration,2.59±0.32
same,SUVmax in tumor sample Adrenal 2,[2]; 60–70 min after administration,5.79
same,SUVmax in tumor sample Bone,[2]; 60–70 min after administration,1.42
same,SUVmax in tumor sample Liver 1,[2]; 60–70 min after administration,3.31
same,SUVmax in tumor sample Liver 2,[2]; 60–70 min after administration,2.79
same,SUVmax in tumor sample Liver 3,[2]; 60–70 min after administration,3.24
same,SUVmax in tumor sample Lung,[2]; 60–70 min after administration,1.15
same,SUVmax in tumor sample Ovary,[2]; 60–70 min after administration,3.05
same,"TLR (tumor-to-liver ratio), liver tumors <3 mm",[2]; 60–70 min after administration,2.26
same,TLR for liver lesions (range depending on tumor size),[2]; 60–70 min after administration,2.26–2.71
same,"TLR, liver tumors >3 mm",[2]; 60–70 min after administration,2.71
same,"TBR (tumor-to-background ratio), liver tumors <3 mm",[2]; 60–70 min after administration,10.38
same,"TBR, adrenal tumors >3 mm",[2]; 60–70 min after administration,22.79
same,"TBR, liver tumors >3 mm",[2]; 60–70 min after administration,12.45
same,"TBR, ovary tumors >3 mm",[2]; 60–70 min after administration,8.93
same,SUVmax in tumor sample Adrenal 1,[2]; 60–70 min after administration,6.46
same,"SUVmax time–activity course, liver lesions regardless of tumor size","[2]; dynamic PET 10–70 min, Fig. 1",remained stable over time
same,"SUVmax in liver lesions, the first week",[2],3.023±0.22
same,"SUVmax in liver lesions, the second week",[2],2.88±0.12
same,optimal time for lesion detection after administration,[2],60 to 70 min
same,number of mice with adrenal tumors localized by PET,"[2]; week 5, nine mice",5 mice
same,number of mice with liver tumors localized by PET,"[2]; week 5, nine mice",9 mice
same,number of mice with lung tumors localized by PET,"[2]; week 5, nine mice",1 in 1 mouse
same,number of mice with ovary tumors localized by PET,"[2]; week 5, nine mice",4 in 4 mice
same,number of ovary tumors localized by PET,"[2]; week 5, nine mice",4 in 4 mice
same,number of adrenal tumors localized by PET,"[2]; week 5, nine mice, necropsy 18 in 9 mice",9
same,number of lung tumors localized by PET,"[2]; week 5, nine mice",1 in 1 mouse
CNCCCN1c2ccccc2CCc2ccccc21 [desipramine],side effects on administration in tumor-bearing animals,[3],side effects were in most cases fatal
NCCc1ccc(O)c(O)c1 [dopamine],half-life in circulation,[4],about 1 minute
COC(=O)[C@H]1[C@H]2C[C@@H]3c4[nH]c5cc(OC)ccc5c4CCN3C[C@H]2C[C@@H](OC(=O)c2cc(OC)c(OC)c(OC)c2)[C@@H]1OC [reserpine],side effects on administration in tumor-bearing animals,[3],side effects were in most cases fatal
COc1cc2c(cc1OC)C1CC(=O)C(CC(C)C)CN1CC2 (stereo not shown) [tetrabenazine],side effects on administration in tumor-bearing animals,[3],side effects were in most cases fatal

# Source: paper PMC4713029 (Nuclear medicine and biology, 2011)
